Patent US8865705B2, “Benzimidazole respiratory syncytial virus inhibitors” (Janssen R&D Ireland, priority 2010, dated 2014)
Like-named read-outs stand apart in the source and are kept apart here.

What was measured:
rgRSV224 virus = assay: microbe, parasite or virus in culture; assay type: cell-based, respiratory syncytial virus (RSV); conditions: read-out: WT activity EC50
Protocol: Black 96-well clear-bottom microtiter plates (Corning, Amsterdam, The Netherlands) were filled in duplicate using a customized robot system with serial 4-fold dilutions of compound in a final volume of 50 μl culture medium [RPMI medium without phenol red, 10% FBS, 0.04% gentamycin (50 mg/mL) and 0.5% DMSO]. Then, 100 μl of a HeLa cell suspension (5×10^4 cells/mL) in culture medium was added to each well followed by the addition of 50 μl rgRSV224 (MOI=0.02) virus in culture medium using a multidrop dispenser (Thermo Scientific, Erembodegem, Belgium). rgRSV224 virus is an engineered virus that includes an additional GFP gene (Hallak et al, 2000) and was in-licensed from the NIH (Bethesda, Md., USA). Medium, virus- and mock-infected controls were included in each test. Cells were incubated at 37° C. in a 5% CO2 atmosphere. Three days post-virus exposure, viral replication was quantified by measuring GFP expression in the cells by a MSM laser microscope (Tibotec, Beerse, Belgium). […] In parallel, compounds were incubated for three days in a set of white 96-well microtitier plates (Corning) and the cytotoxicity of compounds in HeLa cells was determined by measuring the ATP content of the cells using the ATPlite kit (PerkinElmer, Zaventem, Belgium) according to the manufacturer's instructions.

HeLa cells = assay: Cytotoxicity in HeLa cells by ATP content (ATPlite kit); assay type: cell-based
Protocol: (§1) Black 96-well clear-bottom microtiter plates (Corning, Amsterdam, The Netherlands) were filled in duplicate using a customized robot system with serial 4-fold dilutions of compound in a final volume of 50 μl culture medium [RPMI medium without phenol red, 10% FBS, 0.04% gentamycin (50 mg/mL) and 0.5% DMSO]. Then, 100 μl of a HeLa cell suspension (5×10^4 cells/mL) in culture medium was added to each well followed by the addition of 50 μl rgRSV224 (MOI=0.02) virus in culture medium using a multidrop dispenser (Thermo Scientific, Erembodegem, Belgium). rgRSV224 virus is an engineered virus that includes an additional GFP gene (Hallak et al, 2000) and was in-licensed from the NIH (Bethesda, Md., USA). Medium, virus- and mock-infected controls were included in each test. Cells were incubated at 37° C. in a 5% CO2 atmosphere. Three days post-virus exposure, viral replication was quantified by measuring GFP expression in the cells by a MSM laser microscope (Tibotec, Beerse, Belgium). The EC50 was defined as the 50% inhibitory concentration for GFP expression. In parallel, compounds were incubated for three days in a set of white 96-well microtitier plates (Corning) and the cytotoxicity of compounds in HeLa cells was determined by measuring the ATP content of the cells using the ATPlite kit (PerkinElmer, Zaventem, Belgium) according to the manufacturer's instructions. The CC50 was defined as the 50% concentration for cytotoxicity.

[1] = as above; assay type: cell-based; conditions: human; Table 1; HeLa cells, three days, ATP content; read-out: Tox CC50
Protocol: as §1

[2] = Table 1, rgRSV224 in HeLa cells, GFP expression three days post-virus exposure
[3] = Table 1, HeLa cells, three days, ATP content, read-out: Tox CC50

| SMILES | EC50 (rgRSV224 virus; [2]) [nM] | CC50 (HeLa cells; [3]) [nM] | CC50 (HeLa cells) [nM] | EC50 (rgRSV224 virus; human respiratory syncytial virus, HeLa, 72 h) [nM] | CC50 at 3 days [1] [nM] |
| --- | --- | --- | --- | --- | --- |
| O=c1n(Cc2nc3cc(Br)ccc3n2CCCCCl)c2cnccc2n1C1CC1 [P8] | < 0.205 | > 9840 |  |  |  |
| O=c1n(Cc2nc3cc(Cl)ccc3n2CCCCO)c2ccccc2n1C1CC1 [P12] | 0.307 |  | > 9840 |  |  |
| CS(=O)(=O)CCCn1c(Cn2c(=O)n(C3CC3)c3ccc(F)cc32)nc2cc(Br)ccc21 [P3] | 0.47 |  | > 9840 |  |  |
| O=c1n(Cc2nc3cc(Br)ccc3n2CCCCF)c2cc(F)ccc2n1C1CC1 [P23] | < 1.6 | > 9840 |  |  |  |
| CC(C)CCn1c(Cn2c(=O)n(C3CC3)c3ccncc32)nc2cc(Br)ccc21 [P17] | 0.808 |  | > 49200 |  |  |
| N#CCCCn1c(Cn2c(=O)n(C3CC3)c3ccncc32)nc2cc(Br)ccc21 [P27] | < 0.15 | > 9840 |  |  |  |
| O=c1n(Cc2nc3cc(Br)ccc3n2CCCCF)c2cnccc2n1C1CC1 [P1] | 0.033 | > 9840 |  |  |  |
| O=c1n(Cc2nc3cc(Cl)ccc3n2CCCCO)c2cnccc2n1C1CC1 [P13] | 0.454 |  | > 9840 |  |  |
| CC(C)(C)C(=O)OCCCCn1c(Cn2c(=O)n(C3CC3)c3ccccc32)nc2cc(Cl)ccc21 [P19] | 2.59 |  | > 9840 |  |  |
| CS(=O)(=O)CCCn1c(Cn2c(=O)n(C3CC3)c3ccc(F)cc32)nc2cc(Cl)ccc21 [P10] | 0.23 |  | > 9840 |  |  |
| CN(C)CCCn1c(Cn2c(=O)n(C3CC3)c3ccncc32)nc2cc(Br)ccc21 [P21] | 4.12 |  | > 98400 |  |  |
| CS(=O)(=O)NCCCCn1c(Cn2c(=O)n(C3CC3)c3ccncc32)nc2cc(Br)ccc21 [P5] | < 0.15 |  | > 101000 |  |  |
| CS(=O)(=O)CCCn1c(Cn2c(=O)n(C3CC3)c3ccccc32)nc2cc(Cl)ccc21 [P24] | < 0.15 |  | > 9840 |  |  |
| CS(=O)(=O)CCCn1c(Cn2c(=O)n(C3CC3)c3ccncc32)nc2cc(Br)ccc21 [P2, 3-({5-Bromo-1-[3-(methylsulfonyl)propyl]-1H-benzimidazol-2-yl}methyl)-1-cyclopropyl-1,3-dihydro-2H-imidazo[4,5-c]pyridin-2-one] |  |  |  | 0.034 | > 9840 |
| CC(=O)OCCCCn1c(Cn2c(=O)n(C3CC3)c3ccncc32)nc2cc(Br)ccc21 [P18] | 1.07 | > 101000 |  |  |  |
| CS(=O)(=O)NCCCn1c(Cn2c(=O)n(C3CC3)c3ccncc32)nc2cc(Br)ccc21 [P9] | 0.21 |  | > 101000 |  |  |
| CC(C)CCn1c(Cn2c(=O)n(C3CC3)c3ccncc32)nc2cc(Cl)ccc21 [P15] | < 0.62 |  | > 98400 |  |  |
| N#CCCCn1c(Cn2c(=O)n(C3CC3)c3ccncc32)nc2cc(Cl)ccc21 [P26] | < 0.15 | > 9840 |  |  |  |
| O=c1n(Cc2nc3cc(Br)ccc3n2CCCCO)c2cc(F)ccc2n1C1CC1 [P16] | 0.744 |  | > 9840 |  |  |
| CC(=O)OCCCCn1c(Cn2c(=O)n(C3CC3)c3ccc(F)cc32)nc2cc(Br)ccc21 [P22] | < 0.81 | > 9840 |  |  |  |
| O=c1n(Cc2nc3cc(Cl)ccc3n2CCCCO)c2cc(F)ccc2n1C1CC1 [P11] | 0.253 |  | > 9840 |  |  |
| CC(C)(C)C(=O)OCCCCn1c(Cn2c(=O)n(C3CC3)c3ccc(F)cc32)nc2cc(Cl)ccc21 [P20] | 4.09 |  | > 9840 |  |  |
